According to patent US20030130225A1, “Novel methods of treating local fungal and bacterial infections” (priority 2001, published 2003):
Read-outs that look alike come from different tables or passages of the source.

Key:
Candida vaginitis = settings: single dose oral; cited from earlier work
Candida albicans = settings: for rabbits with no Candida albicans in culture of the vaginal mucosa: 72 hours post dosage
Source text: Thirty-five female albino rabbits vaginally infected with Candida albicans were randomly assigned to seven dosage groups, 5 rabbits per group.

[1] = human, in vivo, po; cited from earlier work

OC(Cn1cncn1)(Cn1cncn1)c1ccc(F)cc1F [Fluconazole, fluconazole]
average time for the onset of symptom relief (Candida vaginitis): about 2.4 days | rabbits with no Candida albicans in culture of the vaginal mucosa (Candida albicans; 0.5 mg/kg oral fluconazole once): 40% | rabbits with no Candida albicans in culture of the vaginal mucosa (Candida albicans; 1.0 mg/kg oral fluconazole once): 100% | rabbits with no Candida albicans in culture of the vaginal mucosa (Candida albicans; 2.0 mg/kg oral fluconazole once): 60% | irritation to the vaginal epithelium (Candida albicans; rabbit, in vivo): mild irritation | time to reach peak plasma concentration [1]: about 3 hours | time to reach vaginal tissue and vaginal fluid [1]: 2 to 3 days
